Data reported in patent publication US9796696B2, “Substituted arylcyclopentenes as therapeutic agents” (Allergan, Inc., priority 2007, dated 2017).

Experiments:
EP2 [1] = molecular target: T1, EP2 (Homo sapiens, UniProt P43116); assay: EP2 cAMP EC50 (in vitro testing); format: cell-based
Source text: (§1) U.S. patent application Ser. No. 11/553,143, filed on Oct. 26, 2006, describes the methods used to obtain the in vitro data in the tables below.

EP2 [2] = molecular target: T1, EP2; assay: EP2 Ki (in vitro testing); format: binding
Source text: as §1

EP2 [3] = molecular target: T1, EP2; assay: EP2 Ca2+ EC50 (in vitro testing); format: cell-based
Source text: as §1

EP3 = molecular target: T2, EP3 (Homo sapiens, UniProt P43115); assay: Other receptors Ca2+ EC50: EP3; format: cell-based; details: NA not defined in the patent
T2 sequence (P43115 1-390): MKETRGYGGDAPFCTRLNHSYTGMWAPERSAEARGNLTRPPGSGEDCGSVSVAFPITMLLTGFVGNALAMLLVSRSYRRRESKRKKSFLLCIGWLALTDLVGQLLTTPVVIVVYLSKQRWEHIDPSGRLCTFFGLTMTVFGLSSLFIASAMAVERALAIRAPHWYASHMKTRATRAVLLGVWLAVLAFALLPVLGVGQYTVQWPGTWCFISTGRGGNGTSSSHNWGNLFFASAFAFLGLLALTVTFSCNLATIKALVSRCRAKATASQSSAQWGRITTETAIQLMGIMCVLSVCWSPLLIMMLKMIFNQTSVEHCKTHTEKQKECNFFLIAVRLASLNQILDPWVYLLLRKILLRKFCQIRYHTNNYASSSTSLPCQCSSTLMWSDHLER
Source text: as §1

DP = molecular target: T3, DP (Homo sapiens, UniProt Q13258); assay: Other receptors Ca2+ EC50: DP; format: cell-based; details: NA not defined in the patent
T3 sequence (Q13258 1-359): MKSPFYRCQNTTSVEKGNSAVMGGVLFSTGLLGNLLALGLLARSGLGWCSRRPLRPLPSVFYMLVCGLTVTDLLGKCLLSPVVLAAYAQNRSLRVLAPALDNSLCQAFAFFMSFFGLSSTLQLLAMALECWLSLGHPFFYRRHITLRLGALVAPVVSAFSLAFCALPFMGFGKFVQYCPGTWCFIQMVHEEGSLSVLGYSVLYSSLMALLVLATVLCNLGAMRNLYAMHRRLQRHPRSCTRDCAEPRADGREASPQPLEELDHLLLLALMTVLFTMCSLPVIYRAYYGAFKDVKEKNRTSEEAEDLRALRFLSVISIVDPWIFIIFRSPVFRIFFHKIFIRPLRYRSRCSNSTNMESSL
Source text: as §1

EP4 [4] = molecular target: T4, EP4 (Homo sapiens, UniProt P35408); assay: EP4 Ki (in vitro testing); format: binding; details: read-out: EP4 Ki EC50
Source text: as §1

[5] = In vivo testing, Max. ΔIOP, Max. hyperemia
Source text: (§2) U.S. Pat. No. 7,091,231 describes the methods used for these in vivo tests.

[6] = In vivo testing, Max. ΔIOP
Source text: as §2

EP4 [7] = molecular target: T4, EP4; assay: EP4 Ca2+ EC50 (in vitro testing); format: cell-based
Source text: as §1

T1 sequence (P43116 whole entry): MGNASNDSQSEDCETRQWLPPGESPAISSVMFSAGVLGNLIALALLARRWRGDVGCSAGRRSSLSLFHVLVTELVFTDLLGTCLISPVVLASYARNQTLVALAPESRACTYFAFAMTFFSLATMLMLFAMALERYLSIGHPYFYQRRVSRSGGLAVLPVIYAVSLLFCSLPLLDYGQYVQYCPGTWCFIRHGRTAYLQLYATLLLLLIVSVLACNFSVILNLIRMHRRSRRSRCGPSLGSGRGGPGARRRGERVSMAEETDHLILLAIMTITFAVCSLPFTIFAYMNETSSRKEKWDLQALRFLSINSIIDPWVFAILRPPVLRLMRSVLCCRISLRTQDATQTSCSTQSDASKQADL
T4 sequence (P35408 whole entry): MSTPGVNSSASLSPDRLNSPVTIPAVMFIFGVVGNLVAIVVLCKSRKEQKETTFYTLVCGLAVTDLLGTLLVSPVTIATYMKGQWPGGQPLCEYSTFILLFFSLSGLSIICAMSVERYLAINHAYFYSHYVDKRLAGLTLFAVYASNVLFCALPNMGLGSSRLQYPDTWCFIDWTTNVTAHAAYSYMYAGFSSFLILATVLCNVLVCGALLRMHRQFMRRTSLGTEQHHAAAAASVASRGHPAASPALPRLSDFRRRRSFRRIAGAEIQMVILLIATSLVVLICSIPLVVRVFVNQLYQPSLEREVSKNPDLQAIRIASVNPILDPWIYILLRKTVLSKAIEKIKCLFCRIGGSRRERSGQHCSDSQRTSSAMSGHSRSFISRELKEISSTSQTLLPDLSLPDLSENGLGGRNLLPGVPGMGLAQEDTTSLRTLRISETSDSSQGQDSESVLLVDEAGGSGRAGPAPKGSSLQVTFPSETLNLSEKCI

| Structure (SMILES) | EC50 (EP2 [1]) [nM] | Ki (EP2 [2]) [nM] | EC50 (EP2 [3]) [nM] | EC50 (EP3) [nM] | Ki (EP4 [4]) [nM] | EC50 (EP4 [7]) [nM] | further results |
| --- | --- | --- | --- | --- | --- | --- | --- |
| CCCCC[C@H](O)c1ccc(C2=CCC[C@@H]2CCCc2ccc(C(=O)O)s2)cc1 [drawing 86] | 1 | 18 | 27 | 3090 |  |  | EC50 (DP): 7740 nM |
| CCCCCC(O)c1ccc(C2=C(C#N)CC[C@@H]2CCCc2ccc(C(=O)O)s2)cc1 (single isomer, unassigned) [Compound 4] |  |  |  |  |  |  | Max. hyperemia ([5]; Conc. 0.003 g/100 mL): 1.4; Max. ΔIOP (%) ([5]; Conc. 0.003 g/100 mL): 35%; Max. ΔIOP (%) ([6]; Conc. 0.003 g/100 mL): 39% |
| CCCCCC(O)c1ccc(C2=C(C#N)CC[C@@H]2CCCc2ccc(C(=O)O)s2)cc1 (single isomer, unassigned) [Compound 3] |  |  |  |  |  |  | Max. hyperemia ([5]; Conc. 0.003 g/100 mL): 1.3; Max. ΔIOP (%) ([5]; Conc. 0.003 g/100 mL): 35%; Max. ΔIOP (%) ([6]; Conc. 0.003 g/100 mL): 46% |
| CCCCC[C@@H](O)c1ccc(C2=C(Cl)CC[C@@H]2CCCc2ccc(C(=O)O)s2)cc1 | 0.2 | 5 | 83 |  | 914 | > 10000 |  |
| CCCCCC(O)c1ccc(C2=C(C#N)CC[C@@H]2CCCc2ccc(C(=O)OCCO)s2)cc1 (stereo partly drawn) [Compound 5] |  |  |  |  |  |  | Max. hyperemia ([5]; Conc. 0.01 g/100 mL): 1.9; Max. ΔIOP (%) ([5]; Conc. 0.01 g/100 mL): 41%; Max. ΔIOP (%) ([6]; Conc. 0.01 g/100 mL): 53% |
| CCCCCC(O)c1ccc(C2=C(F)CC[C@@H]2CCCc2ccc(C(=O)O)s2)cc1 (stereo partly drawn) | 0.2 | 2.4 | 27 | 1820 | > 10000 | 2960 |  |
| CCCCC[C@H](O)c1ccc(C2=CCC[C@@H]2CCCc2ccc(C(=O)O)s2)cc1 [Compound 6] |  |  |  |  |  |  | Max. hyperemia ([5]; Conc. 0.01 g/100 mL): 2.0; Max. ΔIOP (%) ([5]; Conc. 0.01 g/100 mL): 32%; Max. ΔIOP (%) ([6]; Conc. 0.01 g/100 mL): 31% |
| CCCCCC(O)c1ccc(C2=C(O)C(=O)C[C@@H]2C/C=C\CCCC(=O)O)cc1 (stereo partly drawn) [drawing 82] | 54 | 313 | 442 | 9640 | 785 | > 10000 |  |
| CCCCCC(O)c1ccc(C2=C(Cl)CC[C@@H]2CCCc2ccc(C(=O)OC(C)C)s2)cc1 (stereo partly drawn) [Compound 2] |  |  |  |  |  |  | Max. hyperemia ([5]; Conc. 0.1 g/100 mL): 1.7; Max. ΔIOP (%) ([5]; Conc. 0.1 g/100 mL): 21%; Max. ΔIOP (%) ([6]; 0.1% dose): 26% |
| CCCCCC(O)c1ccc(C2=C(Cl)CC[C@@H]2CCCc2ccc(C(=O)O)s2)cc1 (stereo partly drawn) [Compound 1] |  |  |  |  |  |  | Max. hyperemia ([5]; Conc. 0.01 g/100 mL): 1.7; Max. ΔIOP (%) ([5]; Conc. 0.01 g/100 mL): 39%; Max. ΔIOP (%) ([6]; 0.1% dose): 62 (0.1% dose) |
| CCCCCC(O)c1ccc(C2C(Br)=CC[C@@H]2CCCc2ccc(C(=O)O)s2)cc1 (stereo partly drawn) [drawing 83] | 0.7 | 5 | 847 | 3220 | 522 | > 10000 |  |
| CCCCCC(O)c1ccc(C2=C(C)CC[C@@H]2CCCc2ccc(C(=O)O)s2)cc1 (stereo partly drawn) [drawing 88] | 4 | 16 | 193 | 7340 | > 10000 | 955 |  |
| CCCCC[C@H](O)c1ccc(C2=C(Cl)CC[C@@H]2CCCc2ccc(C(=O)O)s2)cc1 | 0.6 | 16 | 355 | 1490 | 3680 | > 10000 |  |
| CCCCC[C@@H](O)c1ccc(C2=CCC[C@@H]2CCCc2ccc(C(=O)O)s2)cc1 [drawing 87] | 0.8 | 10 | 36 | 5890 | 16300 |  | EC50 (DP): 9920 nM |
| CCCCCC(O)c1ccc(C2=C(Br)CC[C@@H]2CCCc2ccc(C(=O)O)s2)cc1 (stereo partly drawn) [drawing 79] | 0.4 | 1.5 | 403 | 2340 | 966 | > 10000 |  |
| CCCCC[C@@H](O)c1ccc(C2=CCC[C@@H]2CCCc2ccc(C(=O)O)s2)cc1 [Compound 7] |  |  |  |  |  |  | Max. hyperemia ([5]; Conc. 0.01 g/100 mL): 1.8; Max. ΔIOP (%) ([5]; Conc. 0.01 g/100 mL): 37% |
| CCCCCC(O)c1ccc(C2=CCC[C@@H]2CCCc2ccc(C(=O)O)s2)cc1 (stereo partly drawn) | 0.9 | 5 | 19 |  | 1180 | > 10000 |  |

Second part, led by results:

| EC50 (EP2 [1]) [nM] | Ki (EP2 [2]) [nM] | EC50 (EP2 [3]) [nM] | EC50 (EP3) [nM] | Ki (EP4 [4]) [nM] | EC50 (EP4 [7]) [nM] | Structure (SMILES) | further results |
| --- | --- | --- | --- | --- | --- | --- | --- |
| 154 | 1370 |  | 8560 | 175 |  | CCCCCC(O)c1ccc(C2=C(C#N)CC[C@@H]2CCCc2ccc(C(=O)O)s2)cc1 (stereo partly drawn) |  |
| 0.45 | 5 | 74 | 3540 | > 10000 | 2800 | CCCCCC(O)c1ccc(C2=C(C#N)CC[C@@H]2CCCc2ccc(C(=O)O)s2)cc1 (single isomer, unassigned) [drawing 84] |  |
| 48 | 53 | 119 | 6980 | 1540 | > 10000 | CCCCCC(O)c1ccc(C2=C(CO)CC[C@@H]2CCCc2ccc(C(=O)O)s2)cc1 (stereo partly drawn) [drawing 81] |  |
| 0.4 | 3 | 65 | 202 | 16000 | 3350 | CCCCCC(O)c1ccc(C2=C(C#N)CC[C@@H]2CCCc2ccc(C(=O)O)s2)cc1 (single isomer, unassigned) [drawing 85] |  |
